Assay results from patent US9233933B2, “4,4-disubstituted-1,4-dihydropyrimidines and the use thereof as medicaments for the treatment of hepatitis B” (priority 2012, dated 2016).
Where two headings read alike, the source gives them in different places.

Tests used:
[1] = system: HBV; assay: anti-HBV activity in stable transfected HepG2.2.15 cell line, HBV DNA from secreted virions by realtime PCR; type: cell-based, Hepatitis B virus; settings: HepG2.2.15 cells, 6 days of treatment, secreted virion HBV DNA, read-out: HBV-HepG2 2.15 EC50
[2] = system: HepG2 cells; assay: Cytotoxicity in HepG2 cells using CellTiter-Blue, same incubation period as HepG2.2.15 assay; type: cell-based; settings: 6 days
Protocol: Cytotoxicity of the compounds was tested in HepG2 cells using CellTiter-Blue, with the same incubation period and dose range as in the HepG2.2.15 assay.

[3] = system: HBV; assay: anti HBV activity in HepG2.117 cell line (Tet-off, inducibly HBV producing), intracellular HBV DNA by realtime PCR; type: cell-based, Hepatitis B virus; settings: HepG2.117 cells, 3 days of treatment, intracellular HBV DNA, read-out: HepG2 117 EC50
[4] = system: HepG2 cells; settings: human, 4 days
[5] = system: HepG2 cells; assay: Cytotoxicity in HepG2 cells incubated 4 days, Resazurin assay; settings: read-out: HepG2 4 days CC50
[6] = Hepatitis B virus, HepG2.2.15, 144 h
[7] = HepG2 cells, CellTiter-Blue, read-out: HepG2 6 days CC50

Structure (SMILES) | EC50 [1] | CC50 ([2]; human) | EC50 [3] | CC50 [4] | CC50 [5] | EC50 [1, 6] | CC50 [2, 7] | EC50 ([3]; Hepatitis B virus, HepG2.117, 72 h)
COC(=O)C1=C(CN2CCOCC2)NC(c2ccccn2)=NC12CCc1c(F)cccc12 (single isomer, unassigned) [Compound 66b] | 35.1 µM | > 100 µM | 48.9 µM | > 100 µM |  |  |  | 
COC(=O)C1=C(C)NC(c2nccs2)=NC12C(F)=Cc1c2ccc(F)c1F (single isomer, unassigned) [Compound 174b] |  |  | > 25 µM | > 25 µM |  |  |  | 
COC(=O)C1=C(C)NC(c2nccs2)=NC12C(F)=C(F)c1cc(F)ccc12 (single isomer, unassigned) [Compound 166b] | 0.197 µM |  | 15.5 µM | > 25 µM |  |  |  | 
COC(=O)C1=C(CN2CCOCC2)NC(c2ccccn2)=NC12c1ccc(F)cc1C(F)C2(F)F (single isomer, unassigned) [Compound 168B] | 5.73 µM |  | 1.49 µM | > 25 µM |  |  |  | 
COC(=O)C1=C(C)NC(c2ncc(F)cc2F)=NC1(C)c1ccc(Cl)c(F)c1 (stereo not shown) [156 •MsOH] | 1.93 µM |  | 1.09 µM |  | > 25 µM |  |  | 
COC(=O)C1=C(C)NC(c2ncccc2F)=NC1(C)c1ccc(F)c(F)c1 (single isomer, unassigned) [Compound 158b] |  |  | > 25 µM |  | > 25 µM | > 100 µM |  | 
COC(=O)C1=C(C)NC(c2ncc(F)cc2F)=NC1(c1ccc(F)c(F)c1)C(F)F (single isomer, unassigned) [Compound 151b] | 4.25 µM |  | 3.68 µM |  | > 25 µM |  |  | 
COC(=O)C1=C(C)NC(SC)=NC1(C)c1ccc(F)c(F)c1 (single isomer, unassigned) [Compound 160b] | 0.451 µM |  | 10.5 µM |  | > 25 µM |  |  | 
COC(=O)C1=C(C#N)NC(c2ncc(F)cc2F)=NC1(C)c1ccc(F)c(F)c1 (single isomer, unassigned) [Compound 163b] | > 100 µM |  | > 25 µM |  | > 25 µM |  |  | 
CCOC(=O)C1=C(CN2CCOCC2)NC(c2ccccn2)=NC1(c1ccc(F)cc1)C(F)(F)F (racemic) [Compound 34b] | 8.23 µM |  |  |  |  |  | 41.6 µM | 
COC(=O)C1=C(C)NC(c2ncc(F)cc2F)=NC12c1ccccc1OC2(F)F (single isomer, unassigned) [Compound 106b] | 29.4 µM | > 100 µM | > 25 µM | > 25 µM |  |  |  | 
COC(=O)C1=C(C)NC(c2ncccn2)=NC1(C)c1ccc(F)c(F)c1 (single isomer, unassigned) [Compound 159b] | > 100 µM |  | > 25 µM |  | > 25 µM |  |  | 
N#CC1=C(CN2CCOCC2)NC(c2ccccn2)=NC12CCCc1cc(F)ccc12 (single isomer, unassigned) [Compound 60b] | 2.26 µM |  | 1.28 µM |  | > 100 µM |  | > 100 µM | 
CCOC(=O)C1=C(CN2CCOCC2)NC(c2ccccn2)=NC1(c1ccc(F)cc1)C(F)(F)F (racemic) [Compound 34a] | > 100 µM |  |  |  |  |  | 30.9 µM | 
CCOC(=O)C1=C(CN2CCOCC2)NC(c2ccccn2)=NC1(C)c1ccc(F)cc1 (racemic) [Compound 4a] | > 100 µM |  |  |  |  |  | 92 µM | 
CCOC(=O)C1=C(CN2CCOCC2)NC(c2ccccn2)=NC1(C)c1ccc(F)cc1 (racemic) [Compound 4b] | 0.643 µM |  | 0.76 µM |  | > 50 µM |  | 92.4 µM | 
COC(=O)C1=C(C)NC(c2ncc(F)cc2F)=NC1(C)c1ccc(F)c(F)c1 (stereo not shown) [132b •MsOH] |  |  |  |  | > 25 µM | 0.694 µM |  | 0.803 µM
CCOC(=O)C1=C(CN2CCOCC2)NC(c2ccccn2)=NC1(c1ccc(F)cc1)C(F)(F)F (racemic) [Compound 34] | 16.2 µM |  |  |  |  |  | 20 µM | 
COC(=O)C1=C(CN2CCOCC2)NC(c2ccccn2)=NC12CCc1ccc(F)cc12 (single isomer, unassigned) [Compound 96b] | 30.3 µM | > 100 µM | 18.7 µM | > 100 µM |  |  |  | 
COC(=O)C1=C(C)NC(c2ncc(F)cc2F)=NC12CC(C)(C)c1ccccc12 (single isomer, unassigned) [Compound 134b] | 41.9 µM | 35.8 µM | > 50 µM | > 50 µM |  |  |  | 
